{"source": "patent US10189798B2", "about": "“Antimicrobial compounds, methods of making the same and articles comprising them” (MEDICAL TECHNOLOGY RESEARCH INC, priority 2014, dated 2019)", "key": {"[1]": {"test_system": "Staphylococcus aureus ATCC6538", "assay": "Zone of inhibition (ZOI) assay", "format": "cell-based", "conditions": "for antimicrobial activity, qualitative: ZOI assay, S. aureus ATCC6538", "experimental": "The antimicrobial activity of the antimicrobial silver s-triazine compounds was verified by standard zone of inhibition (ZOI) assay known to those skilled in the art. Briefly, in this assay, samples were placed on plates with proprietary agar formula (similar to Mueller Hinton Agar (MHA)) that were inoculated with bacteria and incubated at 37° C. overnight. If antimicrobial activity in the sample was present, it formed a clear zone around the edges. As negative control, the samples without the silver active compound were used. For primary screening of antimicrobial activity, the gram positive bacteria Staphylococcus aureus ATCC6538 was employed in the assay. To examine broad spectrum antimicrobial activity, various different types of organisms including gram negative Pseudomonas aeruginosa ATCC9027, Methicillin-Resistance Staphylococcus aureus (MRSA) and Vancomycin-Resistant Enterococci (VRE) could be employed. In investigating the broad spectrum activity, the ZOI assay is performed slightly differently. Instead of laying the samples on plates individually inoculated with different types of bacteria, the bacterial inoculums are streaked as parallel lines on one plate. After streaking the inoculum linearly, the samples are deposited as a continuous bead string in perpendicular direction to the streak lines. Evidence of antimicrobial activity in the sample is seen in the form of interruptions on both sides of the edges of the sample string."}, "[2]": {"assay": "Discoloration on table lamp light exposure", "format": "physicochemical", "conditions": "for time without discoloration under table lamp light: clear solution with ammonium hydroxide, ~5000 ppm silver, lamp at 12″", "experimental": "Stock solutions (0.1M) of monosodium salts of DMCA, EIC and MIC were prepared. […] To accelerate anion exchange between sodium and silver cations, heating of liquids was carried out in microwave between ˜50° to 55° C. The tube contents were cooled and then to each tube neat ammonium hydroxide (0.1 ml) was added which caused the suspensions to clear for all three compounds. […] The theoretical content of silver in the clear solutions was ˜5000 ppm. To a 100 ml PP cup with stir bar, deionized water was added (13.2 ml)."}, "[3]": {"assay": "Discoloration on direct sunlight exposure", "format": "physicochemical", "conditions": "for direct sunlight exposure withstood before any sign of discoloration: undiluted aqueous suspension, ~5500 ppm silver", "experimental": "Silver-PDT powder (˜0.027 g) was transferred to the gel and hand-mixed to uniformity with a spatula to obtain clear to hazy gel. […] For DMCA, the tube was kept at ˜25° C. overnight for reaction completion. […] Considering that the amount of silver in the undiluted suspensions was ˜5500 ppm, the discoloration resistance can be considered extraordinary. In contrast, the undiluted suspension of Ag-PDT withstood 0.5 h of sunlight exposure before discoloration was visible. […] A suspension of Ag-MIC was prepared according to Example 13. […] A 2″×2″ piece of cotton gauze was soaked in the clear solution, blotted with paper towel to remove excess and dried at 55° C. for 0.25 to 0.5 h. In the same clear solution prepared separately, a filter paper strip was immersed, shaken and then dried at 55° C. for 0.25 h-0.5 h. Both substrates with silver-MIC were exposed to direct sunlight. […] Thus, in both instances following substrate impregnation, Ag-MIC still maintained robust light discoloration resistance. […] On a clean glass slide, a small volume (˜0.25 ml) was spread with a transfer pipet and left in an oven at 55° C. to dry for 0.5 h. The theoretical amount of silver in the dried coating was estimated at ˜2700 ppm. […] Such coating composition could be useful in providing antimicrobial surfaces. […] Similar sized piece of each dressing was pouched in foil and steam sterilized. After cooling to room temperature the samples were examined for discoloration. None was observed. […] Even after 4 h of direct sunlight exposure, no discoloration of the Ag-PDT impregnated paper was observed. The approximate theoretical amount of silver in the impregnated paper strip was ˜8700 ppm."}, "[4]": {"conditions": "water, 25° C."}, "[5]": {"assay": "Discoloration on heat exposure (55° C. / steam sterilization)", "format": "physicochemical", "conditions": "550 ppm silver", "experimental": "The sterilization of any samples (devices or compositions) comprising antimicrobial silver s-triazine compounds was carried out by steam sterilization. By subjecting test samples to steam sterilization, one can ascertain the ability of the antimicrobial silver s-triazine compounds to withstand thermal stresses. […] Thus, the test samples experienced nearly 3.5 h of hostile temperature condition. […] Silver-PDT powder (˜0.027 g) was transferred to the gel and hand-mixed to uniformity with a spatula to obtain clear to hazy gel. […] Similar sized piece of each dressing was pouched in foil and steam sterilized. After cooling to room temperature the samples were examined for discoloration. None was observed."}, "[6]": {"conditions": "Alginate sheet, Example 17, ~4500 ppm silver"}}, "data": [{"smiles": "CCn1c(=O)[n-]c(=O)[nH]c1=O.[Ag+]", "note": "[Ag-EIC]", "values": [{"measurement": "Zone width", "setting": "[1]; [6]", "value": 8.5, "unit": "mm"}, {"measurement": "antimicrobial activity, qualitative", "setting": "[1]", "value": "strong activity"}, {"measurement": "time without discoloration under table lamp light", "setting": "[2]", "value": 96, "unit": "h"}, {"measurement": "direct sunlight exposure withstood before any sign of discoloration", "setting": "[3]", "value": 1.5, "unit": "h"}, {"measurement": "aqueous solubility", "setting": "[4]", "value": 16.5, "unit": "µg/mL"}]}, {"smiles": "Cn1c(=O)[n-]c(=O)[nH]c1=O.[Ag+]", "note": "[Ag-MIC]", "values": [{"measurement": "Zone width", "setting": "[1]; [6]", "value": 9.5, "unit": "mm"}, {"measurement": "Zone width", "setting": "[1]; Cotton gauze, Example 14", "value": 5.5, "unit": "mm"}, {"measurement": "Zone width", "setting": "[1]; Filter paper, Example 14", "value": 8.0, "unit": "mm"}, {"measurement": "Zone width", "setting": "[1]; Gel, Example 15, 550 ppm silver", "value": 2.5, "unit": "mm"}, {"measurement": "antimicrobial activity, qualitative", "setting": "[1]", "value": "strong activity"}, {"measurement": "gel discoloration under table lamp light", "setting": "[2]; Laponite gel, 550 ppm silver, overnight", "value": "did not discolor"}, {"measurement": "time without discoloration under table lamp light", "setting": "[2]", "value": 72, "unit": "h"}, {"measurement": "direct sunlight exposure without discoloration", "setting": "[3]; impregnated cotton gauze, Example 14", "value": "> 3", "unit": "h"}, {"measurement": "direct sunlight exposure after which faint cream color registered", "setting": "[3]; impregnated filter paper strip, Example 14", "value": 1.5, "unit": "h"}, {"measurement": "direct sunlight exposure withstood before any sign of discoloration", "setting": "[3]", "value": 1.5, "unit": "h"}, {"measurement": "aqueous solubility", "setting": "[4]", "value": 48, "unit": "µg/mL"}, {"measurement": "gel change at 55° C.", "setting": "[5]; Laponite gel, 4 weeks", "value": "practically unchanged"}]}, {"smiles": "O=c1nc(-c2ccccc2)[nH]c(=O)[n-]1.[Ag+]", "note": "[Ag-PDT]", "values": [{"measurement": "Zone width", "setting": "[1]; [6]", "value": 5.5, "unit": "mm"}, {"measurement": "antimicrobial activity, qualitative", "setting": "[1]", "value": "strong activity"}, {"measurement": "gel discoloration in direct sunlight", "setting": "[3]; carboxymethyl cellulose gel, 550 ppm silver, PP tubes", "value": "no discoloration of gel was seen for up to an hour"}, {"measurement": "discoloration as suspension temperature increased during photo-exposure", "setting": "[3]; diluted suspension ~1350 ppm silver, temperature ~50° C.", "value": "no discoloration was seen"}, {"measurement": "direct sunlight exposure without discoloration", "setting": "[3]; impregnated thin paper strip, ~8700 ppm silver", "value": "> 4", "unit": "h"}, {"measurement": "direct sunlight exposure required before signs of discoloration", "setting": "[3]; suspension diluted with deionized water, ~1350 ppm silver, PP tube", "value": "over 4 h"}, {"measurement": "direct sunlight exposure withstood before any sign of discoloration", "setting": "[3]", "value": 0.5, "unit": "h"}, {"measurement": "gel discoloration at 55° C.", "setting": "[5]; carboxymethyl cellulose gel, short term exposure", "value": "did not show any gel discoloration"}]}]}
